Laboratory results taken from patent US9181575B2 (priority 2008, dated 2015).

Test system: Legionella pneumophila
Assay type: cell-based
Conditions: after THPS 15 mg/L, 60 min; 0.1% pyruvate and/or 1% glutamic acid in BCYE

| SMILES | ratio of number of culturable Legionella on supplemented medium to standard medium (BCYE) |
| --- | --- |
| N[C@@H](CCC(=O)O)C(=O)O [glutamic acid] | 0.2 |
| CC(=O)C(=O)O [pyruvate] | 45 |
